From patent US20040214851A1, “Compositions and methods for induction of opioid receptors” (3M Innovative Properties Company, priority 2003, published 2004)
Read-outs that look alike come from different tables or passages of the source.

Tests used:
μ-opioid receptor = assay: Induction of μ-opioid receptor mRNA in human PBMCs (GeneChip microarray); assay type: cell-based
Description: (§1) Opioid receptor inducing compounds (ORICs) were dissolved in dimethyl sulfoxide (DMSO, Sigma Chemical Company) at 5 mM concentration. PBMCs were incubated for one hour in X-VIVO 20 medium (Cambrex Bio Science, Walkersville, Md.) at 37° C. in a 5% CO2 incubator prior to incubation with ORIC prepared in DMSO or with DMSO alone (as a control). The amount of DMSO was kept below 0.1% of the total incubation volume.
(§2) PBMCs were incubated for 15, 30, 60, 120 minutes with ORIC 1. […] DMSO-treated control samples were incubated for 1 hour, 2 hours, 5 hours, 9 hours, and 16 hours.
(§3) At the end of the specified incubation time, cells were lysed and total RNA extracted using the Qiagen RNeasy MidiKit (Qiagen, Inc., Valencia, Calif.). RNA was quantified using absorbance at 260. Quality of RNA was determined from the ratio of absorbance measured at OD260 and OD280 and from the ratio of 18S and 28S bands in RNA 6000 Nano Chip gels run on the Agilent 2100 Bioanalyzer (Agilent Technologies, Inc., Palo Alto, Calif.).
RNA was reverse transcribed to cDNA using a Superscript cDNA synthesis kit (Invitrogen Corporation, Carlsbad, Calif.) using an HPLC-purified T7-(dT)24 primer (Genset SA, Paris, France). Labeled cRNA was prepared from double-stranded cDNA by in vitro transcription using an Enzo BioArray High Yield RNA Transcript Labeling Kit in the presence of biotin-11-CTP and biotin-16-UTP (Enzo Diagnostics, Inc., Farmingdale, N.Y.), and purified using an RNeasy MiniKit (Qiagen, Inc.). […]
Images were scanned using the Agilent Gene Array Scanner (Agilent Technologies, Inc., Palo Alto, Calif.), and processed using Affymetrix Microarray Suite (MS 4.0 or MS 5.0) software. The total fluorescence intensity of each image was scaled to 500 to enable comparison of different images. The image at each time point was analyzed relative to the appropriate control in order to calculate changes in expression for each gene. […]

[1] = system: Opioid Growth Factor Receptor (OGFr); assay: Induction of OGFr mRNA in human PBMCs (GeneChip microarray); assay type: cell-based
Description: as §1, §2, §3
RNA was reverse transcribed to cDNA using a Superscript cDNA synthesis kit (Invitrogen Corporation, Carlsbad, Calif.) using an HPLC-purified T7-(dT)24 primer (Genset SA, Paris, France). Labeled cRNA was prepared from double-stranded cDNA by in vitro transcription using an Enzo BioArray High Yield RNA Transcript Labeling Kit in the presence of biotin-11-CTP and biotin-16-UTP (Enzo Diagnostics, Inc., Farmingdale, N.Y.), and purified using an RNeasy MiniKit (Qiagen, Inc.). 10 or 15 μg of biotinylated cRNA were fragmented and hybridized to HG-U95A or U133A GeneChip® arrays (Affymetrix, Santa Clara, Calif.) containing probe sets representing 12,000 genes (HG-U95A) or 22,000 genes (U133A). Chips were hybridized, washed, and stained according to the Affymetrix protocols.
Images were scanned using the Agilent Gene Array Scanner (Agilent Technologies, Inc., Palo Alto, Calif.), and processed using Affymetrix Microarray Suite (MS 4.0 or MS 5.0) software. The total fluorescence intensity of each image was scaled to 500 to enable comparison of different images. The image at each time point was analyzed relative to the appropriate control in order to calculate changes in expression for each gene. Changes in gene expression were deemed significant if the p value for detection and change in expression were <0.05.

[2] = system: melanoma cell line B16-F10; assay: B16-F10 melanoma lung tumor model in C57/BL6 mice; assay type: in vivo; details: B16-F10 i.v.
Description: C57/BL6 mice are injected on Day 0 intravenously with melanoma cell line B16-F10 (5×10^5). On day 5 and lasting through day 19, mice are injected intraperitoneally every other day with either (a) PBS (control), (b) 10 mg/kg of ORIC2, (c) 10 mg/kg [Met^5]-enkephalin, or (d) both.
On Day 20, half the mice are sacrificed and the lungs are removed and weighed. Percent inhibition of lung tumor growth is determined according to the formula:
Placebo weight−Treatment weight×100 Placebo weight

lung cancer = assay: Human subjects with lung cancer, tumor size by CT scan and survival; assay type: in vivo
Description: Human subjects with lung cancer are injected intravenously with a placebo (control), ORIC5 (10 mg/kg), or both ORIC5 (10 mg/kg) and OGF (1 mg/kg) three times a week for eight weeks. Tumor size is measured by CT scan.

[3] = human PBMCs, 1 μM ORIC 2, 5 μM ORIC 3, 0.1 μM ORIC 4, FIG. 3
[4] = human PBMCs, 5 μM ORIC 1 (FIG. 1), 1 μM ORIC 2, 5 μM ORIC 3, 0.1 μM ORIC 4, (FIG. 2)

## CCCCc1nc2c(N)nc3ccccc3c2n1CCCCNS(C)(=O)=O [ORIC4, N-[4-(4-amino-2-butyl-1H-imidazo[4,5-c]quinolin-1-yl)butyl]methanesulfonamide]
μ-opioid receptor; [3]
  induction of the μ-opioid receptor (mRNA): induction
[1]; [4]
  induction of OGFr (mRNA): induction

## CCOCc1nc2c(N)nc3c(c2n1CC(C)(C)O)CCCC3 [ORIC2, 4-amino-2-(ethoxymethyl)-α,α-dimethyl-6,7,8,9-tetrahydro-1H-imidazo[4,5-c]quinoline-1-ethanol]
μ-opioid receptor; [3]
  induction of the μ-opioid receptor (mRNA): induction
[2]; 10 mg/kg i.p. every other day, day 5 to 19, lungs weighed Day 20, vs placebo
  inhibition of tumor growth in the lung: increased inhibition of tumor growth in the lung
[2]; monitored through Day 75, vs placebo
  survival: enhanced survival
[1]; [4]
  induction of OGFr (mRNA): induction

## Cc1nc2c(N)nc3c(c2n1CCCCNC(=O)N1CCOCC1)CCCC3 [ORIC5, N-[4-(4-amino-2-methyl-6,7,8,9,-tetrahydro-1H-imidazo[4,5-c]quinolin-1-yl)butyl]morpholine-4-carboxamide]
Lung cancer; i.v. three times a week for eight weeks, at eight weeks vs prior to treatment
  tumor size by CT scan: measurably smaller
Lung cancer; vs control group
  five-year survival rate: greater
μ-opioid receptor
  induction of the μ-opioid receptor (mRNA): induction
[1]
  induction of OGFr (mRNA): induction

## CC(C)Cn1cnc2c(N)nc3ccccc3c21 [ORIC1, 1-(2-methylpropyl)-1H-imidazo[4,5-c]quinolin-4-amine]
[1]
  induction of OGFr (mRNA): induction
